Test results from ChEMBL document CHEMBL1201862, “PubChem BioAssay data set” (2004).
Where “and” joins values, the source holds several entries; their conditions need not be identical. Equal values may be shown once.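 All cell lines were grown in 96-well plates and treated with compound for 48 hours. GI50 = concentration required for 50% inhibition of growth.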 Calls of active or inactive are those of the source. Cut-off read from the data, not from the text of the source: active = GI50 up to about 1.1 µM and inactive = higher.

Tests used:
Experiment in all cases: inhibition of tumour cell growth, NCI panel, 48 h
[1] = system: A549
[2] = system: CAKI-1
[3] = system: CCRF-CEM
[4] = system: COLO 205
[5] = system: DU-145
[6] = system: KM12
[7] = system: NCI-H460
[8] = system: NCI/ADR-RES
[9] = system: OVCAR-3
[10] = system: OVCAR-5
[11] = system: RPMI-8226
[12] = system: SF-539
[13] = system: SK-MEL-28
[14] = system: SK-MEL-2
[15] = system: T47D
[16] = system: UACC-257
[17] = system: UO-31
[18] = system: SK-MEL-5
[19] = system: TK-10
[20] = system: Hs-578T

Measured: GI50

Cc1cccc(N/C(Sc2ccccc2)=C(/C(Cl)=C(Cl)Cl)[N+](=O)[O-])c1
inactive: [1] 20 µM | [2] 19.9 µM | [3] 27 µM | [4] 15.6 µM | [5] 20.5 µM | [6] 23.1 µM | [7] 35 µM | [8] 15.8 µM | [9] 10 µM | [10] 15.1 µM | [11] 30.4 µM | [12] 16.4 µM | [13] 17.4 µM | [14] 28.1 µM | [15] 18 µM | [16] 20.8 µM | [17] 14.7 µM

CC(=O)OC1COC(n2c(N)c(C#N)c(C)c(C#N)c2=S)C(OC(C)=O)C1OC(C)=O (stereo not given)
inactive: [1] > 100 µM | [2] > 100 µM | [6] > 100 µM | [7] > 100 µM | [8] > 100 µM | [9] > 100 µM | [10] > 100 µM | [11] > 100 µM | [12] > 100 µM | [13] > 100 µM | [18] > 100 µM | [15] 55.3 µM and 58.3 µM | [19] > 100 µM | [16] > 100 µM | [17] > 100 µM

CCOc1ccc(NC(=O)C(=O)C2C(=O)Nc3ccccc3[S+]2[O-])cc1 (stereo not given)
inactive: [1] > 100 µM | [2] > 100 µM | [3] > 100 µM | [20] > 100 µM | [6] > 100 µM | [7] > 100 µM | [8] > 100 µM | [9] > 100 µM | [10] > 100 µM | [11] > 100 µM | [12] > 100 µM | [13] > 100 µM | [14] > 100 µM | [18] > 100 µM | [15] > 100 µM | [19] > 100 µM | [16] > 100 µM | [17] > 100 µM

FC1CCN(C2(c3cccs3)CCCCC2)CC1
inactive: [1] > 100 µM | [2] > 100 µM | [4] > 100 µM | [5] > 100 µM | [6] > 100 µM | [7] > 100 µM | [8] > 100 µM | [9] > 100 µM | [10] > 100 µM | [11] 56.5 µM | [13] > 100 µM | [14] > 100 µM | [18] > 100 µM | [15] > 100 µM | [19] > 100 µM | [16] 60.4 µM | [17] > 100 µM

CC1(C)OC[C@@H](O)[C@H](Br)CO1
inactive: [2] > 100 µM | [3] > 100 µM | [4] > 100 µM | [5] > 100 µM | [20] 68.2 µM | [6] > 100 µM | [7] > 100 µM | [9] > 100 µM | [10] > 100 µM | [11] 67.3 µM | [12] > 100 µM | [13] > 100 µM | [14] > 100 µM | [15] > 100 µM | [19] > 100 µM | [16] > 100 µM | [17] > 100 µM

N#CC(O)CCOCc1ccccc1 (stereo not given)
inactive: [1] > 100 µM | [2] 17.7 µM | [3] 35.4 µM | [4] > 100 µM | [5] > 100 µM | [6] > 100 µM | [7] > 100 µM | [8] > 100 µM | [9] > 100 µM | [10] > 100 µM | [11] 41.7 µM | [12] 85.3 µM | [13] > 100 µM | [14] > 100 µM | [18] > 100 µM | [15] > 100 µM | [19] > 100 µM | [16] > 100 µM | [17] 78.7 µM

O=C(O)C(Br)C(Br)C(=O)O (stereo not given)
inactive: [1] > 100 µM | [2] > 100 µM | [4] > 100 µM | [5] > 100 µM | [20] > 100 µM | [6] > 100 µM | [7] > 100 µM | [8] > 100 µM | [9] > 100 µM | [10] > 100 µM | [11] > 100 µM | [12] > 100 µM | [13] > 100 µM | [14] > 100 µM | [18] > 100 µM | [19] > 100 µM | [16] > 100 µM | [17] > 100 µM

C=C(Cl)C(=C)CCC(Cl)C(C)C (stereo not given)
inactive: [1] > 100 µM | [2] > 100 µM | [3] > 100 µM | [4] > 100 µM | [5] > 100 µM | [20] > 100 µM | [6] > 100 µM | [7] > 100 µM | [8] > 100 µM | [9] > 100 µM | [10] > 100 µM | [11] > 100 µM | [12] > 100 µM | [13] > 100 µM | [14] > 100 µM | [18] > 100 µM | [19] > 100 µM | [16] > 100 µM | [17] > 100 µM

Nc1c(C(=O)c2ccc(Cl)cc2)[nH]c(Nc2ccc(Cl)cc2)c1C(=S)Nc1ccccc1
inactive: [1] 3.21 µM | [2] 6.05 µM | [3] 6.27 µM | [4] 4.13 µM | [5] 5.41 µM | [6] 7.6 µM | [7] 6.58 µM | [8] 2.53 µM | [9] 3.19 µM | [10] 11.8 µM | [11] 14.5 µM | [12] 5.41 µM | [13] 4.27 µM | [14] 11.7 µM | [15] 4.11 µM | [19] 5.4 µM | [16] 11.2 µM | [17] 3.73 µM

CN(NC(=O)/C(=C\c1ccco1)NC(=O)c1ccccc1)c1cn[nH]c(=O)c1Cl
inactive: [1] > 100 µM | [2] > 100 µM | [3] 24.6 µM | [4] > 100 µM | [5] > 100 µM | [20] 52.1 µM | [6] 40.6 µM | [7] > 100 µM | [8] 50.2 µM | [9] 27.9 µM | [10] > 100 µM | [11] 21.1 µM | [12] 24.9 µM | [13] 36.6 µM | [14] 80.5 µM | [18] 29.7 µM | [19] > 100 µM | [16] 48.8 µM | [17] > 100 µM

O=C(O)CCCc1ccc2ccc3ccccc3c2c1
inactive: [1] 61 µM | [2] > 100 µM | [4] 40.8 µM | [5] > 100 µM | [20] 38.8 µM | [6] 35.6 µM | [7] 58.3 µM | [8] 84.3 µM | [9] 53.6 µM | [10] 73.5 µM | [11] 38.8 µM | [13] 81.8 µM | [14] 26.7 µM | [18] 55.2 µM | [15] 52.8 µM | [19] 57.4 µM | [16] 56.2 µM | [17] 88.1 µM
